Patent US20260262643A1, “HERBICIDAL BENZOXAZINES” (FMC CORPORATION, priority 2022, published 2026)

Assays:
pigweed, palmer [1] = test: Test A preemergence; type: in vivo, Amaranthus palmeri; settings: 0 to 100 scale
Method in brief: (§1)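 Visual injury ratings on a 0–100 scale (100 = complete control) versus untreated controls, taken 10 days after treatment in greenhouse. Preemergence: directed soil spray onto seeded loam/sand. Postemergence: foliar application at one- to two-leaf stage, plants 2–10 cm. Formulation: non-phytotoxic solvent plus surfactant.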

barnyardgrass [2] = test: Test A preemergence; type: in vivo, Echinochloa crusgalli; settings: visual injury after 10 days, 0 to 100 scale, 0 is no effect, 100 is complete control
From the text: (§2) Seeds of plant species selected from barnyardgrass (Echinochloa crusgalli), blackgrass (Alopecurus myosuroides), corn (Zea mays), foxtail, giant (giant foxtail, Setaria faberi), goosegrass (Eleusine indica), kochia (Bassia scoparia), oat, wild (wild oat, Avena fatua), pigweed, palmer (palmer amaranth, palmer pigweed, Amaranthus palmeri), Pigweed, Redroot (redroot pigweed, Amaranthus retroflexus), ragweed (common ragweed, Ambrosia artemisiifolia), ryegrass, Italian (italian ryegrass, Lolium multiflorum), soybean (Glycine max), and wheat (Triticum aestivum) were planted into a blend of loam soil and sand and treated preemergence with a directed soil spray using test chemicals formulated in a non-phytotoxic solvent mixture which included a surfactant. At the same time, plants selected from these crops and weed species and also galium (catchweed bedstraw, Galium aparine) and horseweed (Erigeron canadensis) were planted in pots containing the same blend of loam soil and sand and treated with postemergence applications of test chemicals formulated in the same manner. Plants ranged in height from 2 to 10 cm and were in the one- to two-leaf stage for the postemergence treatment. Treated plants and untreated controls were maintained in a greenhouse for 10 days, after which time all treated plants were compared to untreated controls and visually evaluated for injury. Plant response ratings, summarized in Table A, are based on a 0 to 100 scale where 0 is no effect and 100 is complete control. A dash (-) response means no test result.

horseweed = test: Test A postemergence; type: in vivo, Erigeron canadensis; settings: postemergence, 10 days
Method in brief: as §1

barnyardgrass [3] = test: Test A postemergence; type: in vivo, Echinochloa crusgalli; settings: postemergence, 10 days
From the text: as §2

galium = test: Test A postemergence; type: in vivo, Galium aparine; settings: postemergence, 10 days
Method in brief: as §1

wheat [4] = test: Test A postemergence; type: in vivo, Triticum aestivum; settings: postemergence, 10 days
Method in brief: as §1

sedge, umbrella = test: Test B flooded paddy test; type: in vivo, Cyperus difformis; settings: 250 g ai/ha, Flood, 13 days, 0 to 100 scale (0 no effect, 100 complete control)
Method in brief: (§3)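 Two-leaf plants, 3 cm flood, in-water application, 13-day greenhouse hold, visual 0–100 rating vs untreated checks.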

barnyardgrass [5] = test: Test B flooded paddy test; type: in vivo, Echinochloa crus-galli; settings: 250 g ai/ha, Flood, 13 days, 0 to 100 scale (0 no effect, 100 complete control)
Method in brief: as §3

oat, wild [6] = test: Test A preemergence; type: in vivo, Avena fatua; settings: 0 to 100 scale
Method in brief: as §1

rice = test: Test B flooded paddy test; type: in vivo, Oryza sativa; settings: 250 g ai/ha, Flood, 13 days, 0 to 100 scale (0 no effect, 100 complete control)
Method in brief: as §3

kochia [7] = test: Test A postemergence; type: in vivo, Bassia scoparia; settings: postemergence, 10 days
Method in brief: as §1

corn [8] = test: Test A postemergence; type: in vivo, Zea mays; settings: postemergence, 10 days
Method in brief: as §1

ragweed [9] = test: Test A postemergence; type: in vivo, Ambrosia artemisiifolia; settings: postemergence, 10 days
Method in brief: as §1

blackgrass [10] = test: Test A postemergence; type: in vivo, Alopecurus myosuroides; settings: postemergence, 10 days
Method in brief: as §1

blackgrass [11] = test: Test A preemergence; type: in vivo, Alopecurus myosuroides; settings: 0 to 100 scale
Method in brief: as §1

ragweed [12] = test: Test A preemergence; type: in vivo, Ambrosia artemisiifolia; settings: 0 to 100 scale
Method in brief: as §1

pigweed, palmer [13] = test: Test A postemergence; type: in vivo, Amaranthus palmeri; settings: postemergence, 10 days
Method in brief: as §1

oat, wild [14] = test: Test A postemergence; type: in vivo, Avena fatua; settings: postemergence, 10 days
Method in brief: as §1

wheat [15] = test: Test A preemergence; type: in vivo, Triticum aestivum; settings: 0 to 100 scale
Method in brief: as §1

ryegrass, Italian [16] = test: Test A postemergence; type: in vivo, Lolium multiflorum; settings: postemergence, 10 days
Method in brief: as §1

soybean [17] = test: Test A postemergence; type: in vivo, Glycine max; settings: postemergence, 10 days
Method in brief: as §1

corn [18] = test: Test A preemergence; type: in vivo, Zea mays; settings: 0 to 100 scale
Method in brief: as §1

ducksalad = test: Test B flooded paddy test; type: in vivo, Heteranthera limosa; settings: 250 g ai/ha, Flood, 13 days, 0 to 100 scale (0 no effect, 100 complete control)
Method in brief: as §3

ryegrass, Italian [19] = test: Test A preemergence; type: in vivo, Lolium multiflorum; settings: 0 to 100 scale
Method in brief: as §1

kochia [20] = test: Test A preemergence; type: in vivo, Bassia scoparia; settings: 0 to 100 scale
Method in brief: as §1

soybean [21] = test: Test A preemergence; type: in vivo, Glycine max; settings: 0 to 100 scale
Method in brief: as §1

[22] = 500 g ai/ha, visual injury after 10 days, 0 is no effect, 100 is complete control
[23] = 125 g ai/ha, 0 to 100 scale, 0 no effect, 100 complete control
[24] = 500 g ai/ha, visual injury, 0 to 100 scale (0 no effect, 100 complete control)

C[C@H]1CN(C(=O)c2cc(I)cc(-n3cncn3)c2)c2cccc(Cl)c2O1 [Compound 137]
Plant response rating, Pigweed, Palmer (pigweed, palmer [1]; 125 g ai/ha): 10 | Plant response rating, Pigweed, Palmer (pigweed, palmer [1]; [22]): 80 | Plant response rating, Barnyardgrass (barnyardgrass [2]; 125 g ai/ha): 0 | Plant response rating, Barnyardgrass (barnyardgrass [2]; 500 g ai/ha): 40 | Horseweed plant response rating (horseweed; [23]): 0 | Plant response rating, Horseweed (horseweed; [24]): 30 | Barnyardgrass plant response rating (barnyardgrass [3]; [23]): 10 | Plant response rating, Barnyardgrass (barnyardgrass [3]; [24]): 10 | Galium plant response rating (galium; [23]): 80 | Plant response rating, Galium (galium; [24]): 90 | Wheat plant response rating (wheat [4]; [23]): 10 | Plant response rating, Wheat (wheat [4]; [24]): 10 | Plant response rating, Sedge, Umbrella (sedge, umbrella): 0 | Plant response rating, Barnyardgrass (barnyardgrass [5]): 0 | Plant response rating, Oat, Wild (oat, wild [6]; 125 g ai/ha): 0 | Plant response rating, Oat, Wild (oat, wild [6]; [22]): 0 | Plant response rating, Rice (rice): 0 | Kochia plant response rating (kochia [7]; [23]): 30 | Plant response rating, Kochia (kochia [7]; [24]): 70 | Corn plant response rating (corn [8]; [23]): 10 | Plant response rating, Corn (corn [8]; [24]): 10 | Ragweed plant response rating (ragweed [9]; [23]): 30 | Plant response rating, Ragweed (ragweed [9]; [24]): 30 | Blackgrass plant response rating (blackgrass [10]; [23]): 20 | Plant response rating, Blackgrass (blackgrass [10]; [24]): 70 | Plant response rating, Blackgrass (blackgrass [11]; 125 g ai/ha): 0 | Plant response rating, Blackgrass (blackgrass [11]; [22]): 30 | Plant response rating, Ragweed (ragweed [12]; 125 g ai/ha): 0 | Plant response rating, Ragweed (ragweed [12]; [22]): 0 | Pigweed, Palmer plant response rating (pigweed, palmer [13]; [23]): 30 | Plant response rating, Pigweed, Palmer (pigweed, palmer [13]; [24]): 60 | Oat, Wild plant response rating (oat, wild [14]; [23]): 0 | Plant response rating, Oat, Wild (oat, wild [14]; [24]): 0 | Plant response rating, Wheat (wheat [15]; 125 g ai/ha): 0 | Plant response rating, Wheat (wheat [15]; [22]): 0 | Ryegrass, Italian plant response rating (ryegrass, Italian [16]; [23]): 20 | Plant response rating, Ryegrass, Italian (ryegrass, Italian [16]; [24]): 30 | Soybean plant response rating (soybean [17]; [23]): 80 | Plant response rating, Soybean (soybean [17]; [24]): 90 | Plant response rating, Corn (corn [18]; 125 g ai/ha): 0 | Plant response rating, Corn (corn [18]; [22]): 50 | Plant response rating, Ducksalad (ducksalad): 0 | Plant response rating, Ryegrass, Italian (ryegrass, Italian [19]; 125 g ai/ha): 70 | Plant response rating, Ryegrass, Italian (ryegrass, Italian [19]; [22]): 80 | Plant response rating, Kochia (kochia [20]; 125 g ai/ha): 0 | Plant response rating, Kochia (kochia [20]; [22]): 0 | Plant response rating, Soybean (soybean [21]; 125 g ai/ha): 0 | Plant response rating, Soybean (soybean [21]; [22]): 0
